The values that follow come from patent US8084649B2, “Herbicides” (Syngenta Crop Protection, inc., priority 2007, dated 2011).

Assay type in all cases: in vivo
Experiment [1] has as its system Alopecurus myosuroides (ALOMY). Put plainly: Pre-emergence herbicidal activity, glasshouse pot test. The note with it: Alopecurus myosuroides, 480 h, rate 500 g/ha, evaluated after 20 days, read-out: Pre-emergence activity, ALOMY (100=total damage to plant; 0=no damage to plant). The method, boiled down:
(§1)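 Damage was rated visually 20 days after treatment, from 0 (none) to 100 (plant killed). Treatment was a pre-emergence spray of aqueous formulated compound applied to pots sown one day earlier in sterilised soil, with plants then kept under optimum greenhouse conditions.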

Experiment [2] has as its system Digitaria sanguinalis (DIGSA). Described as above. Conditions: Digitaria sanguinalis, 480 h, rate 500 g/ha, evaluated after 20 days, read-out: Pre-emergence activity, DIGSA (100=total damage to plant; 0=no damage to plant). Summed up:
as §1

Experiment [3] has as its system Echinochloa crus-galli (ECHCG). The experiment is described as above. Conditions: Echinochloa crus-galli, 480 h, rate 500 g/ha, evaluated after 20 days, read-out: Pre-emergence activity, ECHCG (100=total damage to plant; 0=no damage to plant). Summed up: as §1
The subject of experiment [4] is Avena fatua (AVEFA). The experiment is described as above. The note with it: Avena fatua, 480 h, rate 500 g/ha, evaluated after 20 days, read-out: Pre-emergence activity, AVEFA (100=total damage to plant; 0=no damage to plant). The method, boiled down:
as §1

Experiment [5] concerns Lolium perenne (LOLPE). The description is as above. Conditions: Lolium perenne, 480 h, rate 500 g/ha, evaluated after 20 days, read-out: Pre-emergence activity, LOLPE (100=total damage to plant; 0=no damage to plant). Summed up:
as §1

Experiment [6] deals with Setaria faberi (SETFA). The experiment is described as above. The note with it: Setaria faberi, 480 h, rate 500 g/ha, evaluated after 20 days, read-out: Pre-emergence activity, SETFA (100=total damage to plant; 0=no damage to plant). Summed up:
as §1

Experiment [7] deals with Alopecurus myosuroides (ALOMY). Nature of the experiment: Post-emergence herbicidal activity, glasshouse pot test. The note with it: Alopecurus myosuroides, rate 125 g/ha, evaluated after 14 or 15 days, read-out: Post-emergence activity, ALOMY (100=total damage to plant; 0=no damage to plant). Summed up:
(§2)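 Visual damage ratings on a 0–100 scale (100 = plant killed) were taken 14 or 15 days after treatment. Seedlings had been raised for 10 days in sterilised soil in a glasshouse before spraying with an aqueous solution of the formulated active ingredient.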

Experiment [8] relates to Digitaria sanguinalis (DIGSA). The description is as above. The note with it: Digitaria sanguinalis, rate 125 g/ha, evaluated after 14 or 15 days, read-out: Post-emergence activity, DIGSA (100=total damage to plant; 0=no damage to plant). Summed up:
as §2

Experiment [9] deals with Echinochloa crus-galli (ECHCG). Described as above. The note with it: Echinochloa crus-galli, rate 125 g/ha, evaluated after 14 or 15 days, read-out: Post-emergence activity, ECHCG (100=total damage to plant; 0=no damage to plant). The method, boiled down:
as §2

In experiment [10] the test system is Avena fatua (AVEFA). The experiment is described as above. The note with it: Avena fatua, rate 125 g/ha, evaluated after 14 or 15 days, read-out: Post-emergence activity, AVEFA (100=total damage to plant; 0=no damage to plant). Summed up:
as §2

The test system of experiment [11] is Lolium perenne (LOLPE). The experiment is described as above. The note with it: Lolium perenne, rate 125 g/ha, evaluated after 14 or 15 days, read-out: Post-emergence activity, LOLPE (100=total damage to plant; 0=no damage to plant). Summed up:
as §2

Experiment [12] deals with Setaria faberi (SETFA). The description is as above. Conditions: Setaria faberi, rate 125 g/ha, evaluated after 14 or 15 days, read-out: Post-emergence activity, SETFA (100=total damage to plant; 0=no damage to plant). Summed up: as §2

`CCc1cc(C)cc(CC)c1C1=C(OC(=O)OCc2ccccc2)CC2(CCOCC2)CC1=O` [Compound P17]: the pest or weed control at 500 g/ha (in [1]; in experiment [2]; in experiment [3]; in the experiment on Avena fatua (AVEFA) [4]; in the experiment on Lolium perenne (LOLPE) [5]; in the experiment with Setaria faberi (SETFA) [6]) was 100% throughout. For the same compound, the pest or weed control at 125 g/ha in [7] turned out to be 90%; in experiment [8] it was 70%; in experiment [9], 70%; in the experiment on Avena fatua (AVEFA) [10] it was 80%; in the experiment with Lolium perenne (LOLPE) [11], 80%; in the experiment with Setaria faberi (SETFA) [12], 70%.
On to `CCc1cc(C)cc(CC)c1C1=C(OC(=O)Oc2ccccc2)CC2(CCOCC2)CC1=O` [Compound P18], for which the pest or weed control at 500 g/ha in experiment [1] worked out at 100%; in experiment [2] it was 100%; in [3], 80%; with Avena fatua (AVEFA) [4], 100%; in the experiment on Lolium perenne (LOLPE) [5], 100%; with Setaria faberi (SETFA) [6] it was 100%. The pest or weed control at 125 g/ha worked out at 80% in experiment [7]; 70% in experiment [8]; 100% in [9]; 100% in the experiment on Avena fatua (AVEFA) [10]; 90% in the experiment with Lolium perenne (LOLPE) [11]; 50% in the experiment on Setaria faberi (SETFA) [12].
For `CCc1cc(C)cc(CC)c1C1=C(OC(=O)OCC(C)(C)C)CC2(CCOCC2)CC1=O` [Compound P19], the pest or weed control at 500 g/ha (in [1]; in experiment [2]; in experiment [3]; with Avena fatua (AVEFA) [4]; in the experiment on Lolium perenne (LOLPE) [5]; in the experiment with Setaria faberi (SETFA) [6]) was 100% each time. For the same compound, the pest or weed control at 125 g/ha turned out to be 90% in [7]; 70% in experiment [8]; 100% in [9]; 90% in the experiment with Avena fatua (AVEFA) [10]; 90% in the experiment on Lolium perenne (LOLPE) [11]; 70% in the experiment on Setaria faberi (SETFA) [12].
With `CCc1cc(C)cc(CC)c1C1=C(OC(=O)OCC(C)C)CC2(CCOCC2)CC1=O` [Compound P20], the pest or weed control at 500 g/ha (in [1]; in [2]; in [3]; with Avena fatua (AVEFA) [4]; in the experiment with Lolium perenne (LOLPE) [5]; in the experiment with Setaria faberi (SETFA) [6]) was 100% throughout. Moreover, the pest or weed control at 125 g/ha was determined as 90% in experiment [7]; 70% in [8]; 100% in experiment [9]; 100% in the experiment on Avena fatua (AVEFA) [10]; 90% in the experiment with Lolium perenne (LOLPE) [11]; 70% in the experiment with Setaria faberi (SETFA) [12].
On to `C=CCOC(=O)OC1=C(c2c(CC)cc(C)cc2CC)C(=O)CC2(CCOCC2)C1` [Compound P21], for which the pest or weed control at 500 g/ha (in experiment [1]; in experiment [2]; in experiment [3]; in the experiment with Avena fatua (AVEFA) [4]; with Lolium perenne (LOLPE) [5]; in the experiment with Setaria faberi (SETFA) [6]) was 100% throughout. Moreover, the pest or weed control at 125 g/ha came to 100% in experiment [7]; 100% in experiment [8]; 100% in experiment [9]; 100% in the experiment with Avena fatua (AVEFA) [10]; 90% with Lolium perenne (LOLPE) [11]; 90% with Setaria faberi (SETFA) [12].
Turning to `C#CCOC(=O)OC1=C(c2c(CC)cc(C)cc2CC)C(=O)CC2(CCOCC2)C1` [Compound P22], the pest or weed control at 500 g/ha (in experiment [1]; in experiment [2]; in experiment [3]; in the experiment with Avena fatua (AVEFA) [4]; in the experiment with Lolium perenne (LOLPE) [5]; with Setaria faberi (SETFA) [6]) was 100% each time. In addition, the pest or weed control at 125 g/ha was determined as 90% in experiment [7]; 100% in [8]; 90% in experiment [9]; 100% in the experiment with Avena fatua (AVEFA) [10]; 90% with Lolium perenne (LOLPE) [11]; 90% in the experiment on Setaria faberi (SETFA) [12].
As to `CCc1cc(C)cc(CC)c1C1=C(OS(C)(=O)=O)CC2(CCOCC2)CC1=O` [Compound P24], the pest or weed control at 500 g/ha in experiment [1] was 80%; in experiment [2], 70%; in experiment [3], 50%; in the experiment with Avena fatua (AVEFA) [4] it was 80%; in the experiment on Lolium perenne (LOLPE) [5], 80%; in the experiment on Setaria faberi (SETFA) [6] it was 90%. The pest or weed control at 125 g/ha (in [7]; in experiment [8]; in [9]; in the experiment with Avena fatua (AVEFA) [10]; in the experiment with Lolium perenne (LOLPE) [11]; in the experiment with Setaria faberi (SETFA) [12]) was 0% each time.
Consider `CCc1cc(C)cc(CC)c1C1=C(OS(=O)(=O)Cc2ccccc2)CC2(CCOCC2)CC1=O` [Compound P26], for which the pest or weed control at 500 g/ha in [1] was 80%; in experiment [2], 60%; in experiment [3] it was 40%; with Avena fatua (AVEFA) [4], 80%; in the experiment with Lolium perenne (LOLPE) [5] it was 90%; with Setaria faberi (SETFA) [6], 70%. The pest or weed control at 125 g/ha amounted to 10% in experiment [7]; 10% in [8]; 0% in [9]; 0% in the experiment on Avena fatua (AVEFA) [10]; 0% with Lolium perenne (LOLPE) [11]; 0% with Setaria faberi (SETFA) [12].
On to `CCc1cc(C)cc(CC)c1C1=C(OS(=O)(=O)CC(F)(F)F)CC2(CCOCC2)CC1=O` [Compound P27], for which the pest or weed control at 500 g/ha (in experiment [1]; in experiment [2]; in experiment [3]; with Avena fatua (AVEFA) [4]; in the experiment with Lolium perenne (LOLPE) [5]; with Setaria faberi (SETFA) [6]) was 100% in each case. For the same compound, the pest or weed control at 125 g/ha in experiment [7] was determined as 70%; in experiment [8], 70%; in experiment [9] it was 70%; in the experiment on Avena fatua (AVEFA) [10], 50%; in the experiment with Lolium perenne (LOLPE) [11] it was 70%; in the experiment on Setaria faberi (SETFA) [12], 50%.
For `CCCS(=O)(=O)OC1=C(c2c(CC)cc(C)cc2CC)C(=O)CC2(CCOCC2)C1` [Compound P29], the pest or weed control at 500 g/ha amounted to 60% in experiment [1]; 80% in [2]; 10% in experiment [3]; 60% in the experiment on Avena fatua (AVEFA) [4]; 60% in the experiment with Lolium perenne (LOLPE) [5]; 60% in the experiment with Setaria faberi (SETFA) [6]. The pest or weed control at 125 g/ha was 30% in experiment [7]; 50% in [8]; 30% in [9]; 0% in the experiment on Avena fatua (AVEFA) [10]; 10% in the experiment on Lolium perenne (LOLPE) [11]; 30% in the experiment on Setaria faberi (SETFA) [12].
